Structures can show the parent of a compound that is named as a salt.
Experiments:
Cloned human D3-receptor = biological target: T1, Cloned human D3-receptor (Homo sapiens, UniProt P35462); assay: D3 binding test (125iodosulpiride displacement); settings: negative logarithm of Ki (D3) [M]
T1 construct: host or cells: CCL 1,3 mouse fibroblasts
Procedure: Cloned human D3-receptor-expressing CCL 1,3 mouse fibroblasts, obtainable from Res. Biochemicals Internat. One Strathmore Rd., Natick, Mass. 01760-2418 USA, were used for the binding studies.
The D3-expressing cells were multiplied in RPMI-1640 containing 10% fetal calf serum (GIBCO No. 041-32400 N); 100 U of penicillin/ml and 0.2% streptomycin (GIBO BRL, Gaithersburg, Md., USA). After 48 h, the cells were washed with PBS and incubated for 5 min with 0.05% trypsin-containing PBS. After that, the mixture was neutralized with medium and the cells were collected by centrifuging at 300 g. In order to lyse the cells, the pellet was washed briefly with lysis buffer (5 mM Tris-HCl, pH 7.4, containing 10% glycerol) and after that incubated, at 4° C. for 30 min, at a concentration of 10^7 cells/ml of lysis buffer. The cells were centrifuged at 200 g for 10 min and the pellet was stored in liquid nitrogen.
For the D3-receptor binding test, the membranes were suspended in incubation buffer (50 mM Tris-HCl, pH 7.4, containing 120 mM NaCl, 5 mM KCl, 2 mM CaCl2, 2 mM MgCl2, 10 μM quinolinol, 0.1% ascorbic acid and 0.1% BSA), at a concentration of approx. 10^6 cells/250 μl of test mixture, and incubated at 30° C. […] 0.1 nM ^125iodosulpiride in the presence and absence of the test substance. The nonspecific binding was determined using 10^−6 M spiperone.
After 60 min, the free radioligand and the bound radioligand were separated by filtering through GF/B glass fiber filters (Whatman, England) on a Skatron cell harvester (Skatron, Lier, Norway), and the filters were washed with ice-cold Tris-HCl buffer, pH-7.4. The radioactivity which had collected on the filters was quantified using a Packard 2200 CA liquid scintillation counter.
The Ki values were determined by means of nonlinear regression analysis using the LIGAND program.

[1] = biological target: T2, human dopamine D2A receptors (Homo sapiens, UniProt P14416); assay: D2 binding test (low affinity state, 125I-spiperone); settings: ratio Ki(D2)/Ki(D3)
T2 construct: expressed in transfected cells; host or cells: HEK-293
Procedure: All the media contained 100 units of penicillin […] and 100 μg/ml of streptomycin/ml. The cells were maintained at 37° C. in a moist atmosphere containing 5% CO2.
The cells were prepared for the binding studies by trypsinizing them (0.05% solution of trypsin) at room temperature for 3-5 minutes. After that, the cells were centrifuged at 250 g for 10 minutes and treated with lysis buffer (5 mM Tris-HCl, 10% glycerol, pH 7.4) at 4° C. for 30 minutes. After centrifuging at 250 g for 10 minutes, the residue was stored at −20° C. until used.
Low affinity state dopamine D2 receptor using ^125I-spiperone (81 TBq/mmol, Du Pont de Nemours, Dreieich)
The test mixtures (1 ml) consisted of 1×10^5 cells in incubation buffer (50 mM Tris, 120 mM NaCl, 5 mM KCl, 2 mM MgCl2 and 2 mM CaCl2, pH 7.4 with HCl) and […] ^125I-spiperone (total binding) or additionally 1 μM haloperidol (nonspecific binding) or test substance.
After the test mixtures had been incubated at 25° C. for 60 minutes, they were filtered through GM/B glass filters (Whatman, England) on a Skatron cell harvester (from Zinsser, Frankfurt), and the filters were washed with ice-cold 50 mM Tris-HCl buffer, pH 7.4. The radioactivity which had collected on the filters was quantified using a Packard 2200 CA liquid scintillation counter.
The results were evaluated as described in a).
The Ki values were determined by way of nonlinear regression analysis using the LIGAND program or by converting the IC50 values using the Cheng and Prusoff formula.

T1 sequence (P35462 whole entry): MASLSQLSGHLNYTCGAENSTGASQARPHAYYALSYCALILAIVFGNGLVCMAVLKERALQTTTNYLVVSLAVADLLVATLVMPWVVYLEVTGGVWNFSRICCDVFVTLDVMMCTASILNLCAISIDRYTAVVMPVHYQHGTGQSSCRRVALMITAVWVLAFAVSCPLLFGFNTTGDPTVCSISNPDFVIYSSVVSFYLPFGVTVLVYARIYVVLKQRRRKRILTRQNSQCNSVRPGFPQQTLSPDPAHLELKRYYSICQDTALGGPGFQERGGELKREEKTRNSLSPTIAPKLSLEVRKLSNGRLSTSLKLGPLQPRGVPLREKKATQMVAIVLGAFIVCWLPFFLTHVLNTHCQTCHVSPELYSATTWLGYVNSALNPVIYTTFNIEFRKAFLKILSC
T2 sequence (P14416 whole entry): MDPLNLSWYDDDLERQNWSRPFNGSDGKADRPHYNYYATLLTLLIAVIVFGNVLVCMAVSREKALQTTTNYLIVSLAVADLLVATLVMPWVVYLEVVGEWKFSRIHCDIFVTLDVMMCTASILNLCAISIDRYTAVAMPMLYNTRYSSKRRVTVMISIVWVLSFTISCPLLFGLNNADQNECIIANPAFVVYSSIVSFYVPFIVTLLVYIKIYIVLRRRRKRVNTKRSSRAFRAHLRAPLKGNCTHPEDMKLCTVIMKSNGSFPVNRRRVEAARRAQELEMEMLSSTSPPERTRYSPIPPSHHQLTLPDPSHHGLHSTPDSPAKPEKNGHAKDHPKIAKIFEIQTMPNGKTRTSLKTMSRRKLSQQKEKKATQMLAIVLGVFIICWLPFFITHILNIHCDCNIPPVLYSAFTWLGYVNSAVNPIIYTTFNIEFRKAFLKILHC

| Compound | melting point | Selectivity (Ki(D2)/Ki(D3)) [1] | also measured |
| --- | --- | --- | --- |
| Cc1ccc2c(c1)CCC(NCCCSc1nnc(-c3ccccc3)n1C)C2 (stereo not drawn) [Example 4, 3-[3-(6-Methyl-1,2,3,4-tetrahydronaphth-2-ylamino)propylmercapto]-4-methyl-5-phenyl-1,2,4(4H)-triazole] | 69 to 73 °C |  |  |
| Cl.Cn1c(SCCCNCC2CCc3cc(Br)ccc3C2)nnc1-c1ccccc1 (stereo not drawn) | 88 °C (dec.) |  |  |
| CCOC(=O)c1nnc(SCCCNC2Cc3ccccc3C2)n1C (as salt: HCl) [Example 25, Ethyl-5-{[3-(indan-2-ylamino)propyl]mercapto}-4-methyl-1,2,4(4H)-triazole-3-carboxylate] | 135 to 139 °C |  |  |
| 3-[3-(6-Methyl-1,2,3,4-tetrahydronaphth-2-ylmethylamino)propylmercapto]-4-methyl-5-phenyl-1,2,4(4H)-triazole [Example 14] |  | 46 | pKi (D3) (Cloned human D3-receptor): 7.82 |
| COc1cc2c(cc1OC)C(NCCCSc1nnc(-c3ccccc3)n1C)CC2.Cl (stereo not drawn) | 201 to 202 °C |  |  |
| 3-[3-(N-(Indan-2-yl)propylamino)propylmercapto]-4-methyl-5-phenyl-1,2,4(4H)-triazole Fumarate [Example 1] |  | 71 | pKi (D3) (Cloned human D3-receptor): 9.05 |
| CCCN(CCCSc1nnc(-c2scnc2C)n1C)C1CCc2ccc(OC)cc2C1 (stereo not drawn) [Example 26, 3-[3-(N-(7-Methoxy-1,2,3,4-tetrahydronaphth-2-yl)-propylamino)propylmercapto]-4-methyl-5-(4-methyl-1,3-thiazol-5-yl)-1,2,4(4H)-triazole] |  | 157 | Ki (Cloned human D3-receptor; read-out: pKi (D3) (converted)): 8.71e-09 M |
| COc1ccc2c(c1)CC(CCCNCCCSc1nnc(-c3ccccc3)n1C)CC2 (stereo not drawn) (as salt: HCl) [Example 18, 3-[3-(N-(7-Methoxy-1,2,3,4-tetrahydronaphth-2-yl)propylamino)propylmercapto]-4-methyl-5-phenyl-1,2,4(4H)-triazole] | 92 to 95 °C |  |  |
| Cc1ncsc1-c1nnc(SCCCNCCCC2CCc3ccc(F)cc32)n1C.Cl (stereo not drawn) | 123 °C |  |  |

From US6579892B1, “Triazole compounds with dopamine-D3-receptor affinity” (Abbott Laboratories, priority 1999, dated 2003)
